Publication PMC9218685, “Legume Plant Peptides as Sources of Novel Antimicrobial Molecules Against Human Pathogens” (Frontiers in Molecular Biosciences, 2022)
Converted amounts (≈) assume the structure as drawn. Ends that are not written are not given here. Peptide text beside a SMILES is read from it.

Key:
[1] = system: Acinetobacter baumannii (ATCC 17978); experiment: microbe, parasite or virus in culture; assay type: cell-based; details: ATCC 17978, 3 h
Procedure, shortened: (§1)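 Peptides were serially diluted two-fold from 25 µM to 0.8 µM and incubated 3 h with roughly 10^7 log-phase cells in potassium-phosphate buffer at pH 7.4; complete killing of viable bacteria defined the minimal bactericidal concentration.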

[2] = system: Candida albicans W01 strain; experiment: microbe, parasite or virus in culture; assay type: cell-based; details: C. albicans W01, two-fold dilution series; lowest concentration completely eliminating viable C. albicans; read-out: MFC, minimal fungicidal concentration against C. albicans
Source text: (§2) The following pathogenic bacterial strains were used: The Gram-positive Enterococcus faecalis (ATCC 29212), Staphylococcus aureus (HNCMO112011), Listeria monocytogenes (ATCC 19111) and the Gram-negative Pseudomonas aeruginosa (ATCC 27853), Escherichia coli (ATCC 8739), Salmonella enterica (ATCC 13076), Klebsiella pneumoniae (NCTC 13440), Acinetobacter baumannii (ATCC 17978) obtained from the ATCC (United States) and NCTC (National Collection of Type Cultures–England). For the antifungal experiment the Candida albicans W01 strain ([Ördögh et al., 2014]) was used. Antimicrobial activities of peptides against ∼10^7 log phase bacteria were tested in Potassium-Phosphate Buffer (PPB, pH 7.4) as described by [Jenei et al. (2020)] while anti-Candida assays were done according to [Szerencsés et al. (2021)]. The two-fold dilution series of peptides ranged from 25 μM to 0.125 μM, while that of the antibiotics ampicillin (Merck) and miconazole (Duchefa Biochemie) from […] to 0.1 μM. The lowest concentration of the antimicrobial agents, which completely eliminated viable bacteria or C. albicans were considered as the minimal bactericidal concentration (MBC) and minimal fungicidal concentration (MFC).

A. baumannii = experiment: Scanning electron microscopy of cell morphology; assay type: cell-based, Acinetobacter baumannii; details: 30 min treatment, peptide 1.6 or 3.125 µM as in Figure 3 legend
Protocol: A. baumannii and C. albicans were grown and treated the same way as for the membrane permeability assay. Cells were then fixed with 2.5% (v/v) glutaraldehyde in phosphate buffered saline (PBS, pH 7.4). 5 μl of the above bacterial and yeast suspensions were spotted on a silicon disk coated with 0.01% Poly-L-Lysine. The filters were washed twice with PBS and gradually dehydrated with ethanol series (30, 50, 70, 80%, and three times 100% ethanol, each for minimum 30 min). The samples were dried with a critical point dryer (K850: Quorum Technologies Ltd.), followed by 12 nm gold coating and observed under a JEOL JSM-7100F/LV scanning electron microscope.
FIGURE 3 Viability, membrane permeability and morphology of A. baumannii cells after NCR treatment (A–L) SYTO9/PI staining observed with confocal microscope, (M–X) Cell morphology observed with SEM. (A,M) untreated control, (B,N) CaNCR13, 3.125 µM, (C,O) CaNCR63, 3.125 µM, (D,P) CaNCR63_1-20, 3.125 µM, (E,Q) CaNCR63_15-34, 3.125 µM, (F,R) MsNCR443, 3.125 µM, (G,S) MsNCR463_16-35, 1.6 µM, (H,T) MsNCR463_17-30, 3.125 µM, (I,U) PsNCR349, 1.6 µM, (J,V) PsNCR349_26-50, 3.125 µM, (K,W) PsNCR349_31-50, 3.125 µM, (L,X) PsNCR352, 1.6 µM.

[3] = system: Lambda DNA/HindIII marker; experiment: Gel retardation assay (DNA aggregation); assay type: binding; details: 100 ng DNA, 5 or 10 µM peptide in water, 30 min at room temperature, 1% agarose gel
Protocol: Interactions of peptides with DNA was visualized with gel retardation assay ([Hsu et al., 2005]). 100 ng Lambda DNA/HindIII marker (ThermoFisher Scientific) was incubated with 0, 5 or 10 µM synthetic NCRs or NCR derivatives in water for 30 min at room temperature and then loaded into 1% agarose gel. Electrophoresis of DNA fragments separated the mobile HindIII-digested DNA fragments while the aggregated DNA remained in the loading wells.
FIGURE 6 Aggregation of DNA by NCR peptides. Lambda HindIII digested DNA was incubated without (0) or with NCR peptides at 5 or 10 μM concentration.

[4] = system: Escherichia coli (ATCC 8739); assay type: cell-based; details: ATCC 8739, 3 h
Procedure, shortened: as §1

[5] = system: Klebsiella pneumoniae (NCTC 13440); assay type: cell-based; details: NCTC 13440, 3 h
Procedure, shortened: as §1

[6] = system: Pseudomonas aeruginosa (ATCC 27853); assay type: cell-based; details: ATCC 27853, 3 h
Procedure, shortened: as §1

[7] = system: Salmonella enterica (ATCC 13076); assay type: cell-based; details: ATCC 13076, 3 h
Procedure, shortened: as §1

[8] = system: Enterococcus faecalis (ATCC 29212); assay type: cell-based; details: for Ability to kill E. faecalis: 3 h, ~10^7 log phase bacteria, peptides ≤25 µM; for MBC Enterococcus faecalis: ATCC 29212, 3 h
Procedure, shortened: as §1

[9] = system: Listeria monocytogenes (ATCC 19111); assay type: cell-based; details: ATCC 19111, 3 h
Procedure, shortened: as §1

[10] = system: Staphylococcus aureus (HNCMO112011); assay type: cell-based; details: HNCMO112011, 3 h
Procedure, shortened: as §1

[11] = system: E. coli, S. enteritidis, P. aeruginosa, L. monocytogenes, S. aureus, E. faecalis, K. pneumoniae and A. baumannii; experiment: Antimicrobial activity assay, spectrum over the eight tested pathogenic bacteria; assay type: cell-based; details: 3 h treatment of ~10^7 log phase bacteria, peptides 25 to 0.8 µM; active = MBC ≤25 µM
Source text: as §2
We investigated the antimicrobial activity of 78 NCR peptides from M. truncatula and 12 NCRs from other IRLC legumes as well as their shorter derivatives against E. coli, S. enteritidis, P. aeruginosa, L. monocytogenes, S. aureus, E. faecalis, K. pneumoniae and A. baumannii (Supplementary Table S1). In the selection of the M. truncatula peptides, we considered their symbiotic expression levels but also their physicochemical properties. The antimicrobial activity of NCRs has so far been attributed to cationic peptides, with the exception of one anionic peptide. To investigate whether other anionic NCRs are antimicrobial, in addition to the cationic peptides, neutral and anionic NCRs were also included covering a broad range of peptides with different net charges (NC: from 7.8 to −10.2) and isoelectric points (pI: from 10.69 to 2.95). 50 peptides had positive net charge and pI > 7.0, while 28 peptides had negative net charge and pI < 7.0 (Supplementary Table S1A). Of the other legumes, only cationic NCR peptides were studied (Supplementary Table S1B).
The minimal bactericidal concentrations (MBCs) were determined after 3 h of treatment of ∼10^7 log phase bacteria with 2-fold serial dilution of peptides from 25 µM to 0.8 µM. Only 25 of the 50 cationic M. truncatula peptides had activity at ≤25 µM (Supplementary Table S1). […] Three peptides were only active against two bacterial strains; NCR649 against L. monocytogenes and A. baumannii, NCR281 against L. monocytogenes and P. aeruginosa and NCR350 against A. baumannii and P. aeruginosa. […] None of the anionic NCR peptides affected the survival of the tested bacterial strains.

Molecule | MBC ([1]; pH 7.4, read-out: MBC, minimal bactericidal concentration against A. baumannii) | MFC [2] | Morphology of A. baumannii cells by SEM (A. baumannii) | Aggregation of HindIII-digested λ DNA (DNA retained in loading wells) [3] | MBC Escherichia coli [4] | MBC Klebsiella pneumoniae [5] | MBC Pseudomonas aeruginosa [6] | MBC Salmonella enterica [7] | MBC Acinetobacter baumannii [1] | Ability to kill E. faecalis [8] | MBC Enterococcus faecalis [8] | MBC Listeria monocytogenes [9] | MBC Staphylococcus aureus [10] | Antibacterial spectrum over the eight tested bacterial strains [11]
CSCC[C@H](NC(=O)[C@H](CC(N)=O)NC(=O)[C@H](Cc1ccccc1)NC(=O)[C@@H](NC(=O)[C@H](CC(C)C)NC(=O)[C@H](CCCCN)NC(=O)[C@H](CCCCN)NC(=O)[C@H](CCCCN)NC(=O)[C@H](CCCCN)NC(=O)[C@H](CCCCN)NC(=O)[C@H](CC(C)C)NC(=O)[C@H](CCCCN)NC(=O)[C@H](CCCCN)NC(=O)[C@H](CCCCN)NC(=O)[C@H](Cc1c[nH]cn1)NC(=O)[C@H](CCCCN)NC(=O)[C@H](CCC(N)=O)NC(=O)[C@@H](NC(=O)[C@H](CS)NC(=O)[C@H](Cc1ccc(O)cc1)NC(=O)[C@H](CS)NC(=O)[C@@H](NC(=O)[C@H](CCCCN)NC(=O)[C@H](Cc1c[nH]c2ccccc12)NC(=O)[C@@H](N)C(C)C)[C@@H](C)O)C(C)C)[C@@H](C)O)C(N)=O [PsNCR349_26-50] (H-VWKTCYCVQKHKKKLKKKKKLTFNM-NH2; N-terminus assumed) | 3.125 µM (≈ 9.81 µg/mL) | 3.125 µM (≈ 9.81 µg/mL) | Filament-like structures | DNA remained in the wells |  |  |  |  |  |  |  |  |  | 
CC[C@H](C)[C@H](NC(=O)CNC(=O)[C@H](CCCNC(=N)N)NC(=O)[C@H](CCCCN)NC(=O)[C@H](CCCNC(=N)N)NC(=O)[C@@H](NC(=O)[C@H](CCCCN)NC(=O)[C@H](CS)NC(=O)[C@H](CC(C)C)NC(=O)CNC(=O)CNC(=O)[C@@H](NC(=O)[C@H](CS)NC(=O)[C@H](CCCNC(=N)N)NC(=O)[C@@H](N)Cc1c[nH]cn1)[C@@H](C)CC)C(C)C)C(=O)N[C@@H](CCCCN)C(=O)NCC(=O)N[C@@H](Cc1ccccc1)C(=O)N[C@H](C(=O)N[C@@H](CC(N)=O)C(=O)N[C@H](C(=O)N1CCC[C@H]1C(N)=O)[C@@H](C)CC)[C@@H](C)CC [GoNCR313 (23-44)] (H-HRCIGGLCKVRKRGIKGFINIP-NH2; N-terminus assumed) |  |  |  |  | 3.125 µM (≈ 7.7 µg/mL) | 12.5 µM (≈ 30.8 µg/mL) | 3.125 µM (≈ 7.7 µg/mL) | 6.25 µM (≈ 15.4 µg/mL) |  |  |  |  |  | 
CC[C@H](C)[C@H](NC(=O)[C@H](CO)NC(=O)[C@@H](NC(=O)[C@H](CO)NC(=O)[C@@H]1CCCN1C(=O)[C@@H]1CCCN1C(=O)[C@H](CS)NC(=O)[C@H](CC(=O)O)NC(=O)[C@@H](NC(=O)[C@H](CC(=O)O)NC(=O)[C@@H](NC(=O)[C@H](CCCCN)NC(=O)[C@H](CS)NC(=O)[C@H](CCCCN)NC(=O)[C@@H](NC(=O)[C@H](C)NC(=O)[C@@H](NC(=O)[C@H](C)N)C(C)C)[C@@H](C)O)[C@@H](C)O)C(C)C)[C@@H](C)O)C(=O)N[C@@H](CCCNC(=N)N)C(=O)N[C@@H](CCCNC(=N)N)C(=O)N[C@@H](Cc1ccc(O)cc1)C(=O)N[C@@H](CCCCN)C(=O)N[C@@H](CS)C(=O)N[C@H](C(=O)N[C@@H](CCCCN)C(=O)N[C@@H](CC(N)=O)C(=O)N[C@@H](CCCCN)C(=O)N[C@@H](CS)C(=O)N[C@@H](CCCNC(=N)N)C(=O)N[C@@H](Cc1ccc(O)cc1)C(=O)N[C@H](C(=O)N[C@@H](CCCNC(=N)N)C(=O)N[C@@H](CC(C)C)C(=O)N[C@@H](CO)C(=O)N[C@@H](Cc1ccc(O)cc1)C(=O)NCC(N)=O)[C@@H](C)O)[C@@H](C)O [PsNCR351] (H-AVATKCKTDVDCPPSTSIRRYKCTKNKCRYTRLSYG-NH2; N-terminus assumed) |  |  |  |  | 3.125 µM (≈ 12.9 µg/mL) |  | 3.125 µM (≈ 12.9 µg/mL) | 25 µM (≈ 103 µg/mL) | 3.125 µM (≈ 12.9 µg/mL) | able to kill | 12.5 µM (≈ 51.4 µg/mL) | 6.25 µM (≈ 25.7 µg/mL) | 6.25 µM (≈ 25.7 µg/mL) | 
FIDCETVADCPTHWAYIYVCEKNKCRYHFKSGRVRPDHQKNRHNRV-OH (cysteines drawn unpaired) [NCR520] |  |  |  |  | 25 µM |  | 3.125 µM |  |  | able to kill | 25 µM |  | 25 µM | effective against five or four strains
CC[C@H](C)[C@H](NC(=O)[C@H](CS)NC(=O)[C@H](CO)NC(=O)[C@H](CCCNC(=N)N)NC(=O)[C@H](CO)NC(=O)[C@H](Cc1ccccc1)NC(=O)[C@@H]1CCCN1C(=O)[C@H](CC(C)C)NC(=O)[C@H](Cc1ccc(O)cc1)NC(=O)[C@H](C)N)C(=O)N[C@@H](CO)C(=O)N[C@@H](CC(=O)O)C(=O)N[C@@H](CCCCN)C(=O)N[C@@H](CC(=O)O)C(=O)N[C@@H](CS)C(=O)N1CCC[C@H]1C(=O)N[C@@H](CCC(N)=O)C(=O)N[C@H](C(=O)N[C@@H](CCCCN)C(=O)N[C@@H](CC(N)=O)C(=O)N[C@@H](Cc1ccccc1)C(=O)N[C@@H](CO)C(=O)N[C@@H](C)C(=O)N[C@@H](CCCNC(=N)N)C(=O)N[C@@H](CS)C(=O)N[C@@H](CCCNC(=N)N)C(=O)N[C@@H](CCCCN)C(=O)NCC(=O)N[C@@H](Cc1ccc(O)cc1)C(=O)N[C@@H](CS)C(=O)N[C@@H](CCC(N)=O)C(=O)N[C@@H](Cc1ccccc1)C(=O)N[C@@H](CCCNC(=N)N)C(=O)N[C@H](C(=O)N[C@H](C(=O)N[C@@H](CCCNC(=N)N)C(=O)O)C(C)C)C(C)C)C(C)C [NCR471] (H-AYLPFSRSCISDKDCPQVKNFSARCRKGYCQFRVVR-OH; N-terminus assumed) |  |  |  |  | 25 µM (≈ 106 µg/mL) |  | 3.125 µM (≈ 13.2 µg/mL) | 25 µM (≈ 106 µg/mL) |  |  |  |  | 12.5 µM (≈ 52.9 µg/mL) | effective against five or four strains
